These results are taken from paper PMC4036672 (Analytical biochemistry, 2014).

Where a SMILES comes first, the peptide text is derived from it.

The experiment concerns the target T1, Neuropilin-2 (Nrp2) (Homo sapiens, UniProt O60462).
T1 sequence (O60462 276-595): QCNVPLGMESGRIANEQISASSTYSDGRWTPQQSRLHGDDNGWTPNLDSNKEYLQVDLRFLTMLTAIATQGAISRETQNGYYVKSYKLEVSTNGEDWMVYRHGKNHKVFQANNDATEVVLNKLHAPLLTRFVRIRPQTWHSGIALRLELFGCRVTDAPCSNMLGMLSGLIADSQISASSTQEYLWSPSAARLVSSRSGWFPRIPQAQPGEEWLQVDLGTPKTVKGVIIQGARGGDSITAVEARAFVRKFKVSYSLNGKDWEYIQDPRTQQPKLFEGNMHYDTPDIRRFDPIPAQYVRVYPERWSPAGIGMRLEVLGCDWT
Kind of experiment: competition plate assay: AP-VEGF-C binding to immobilised purified Nrp2-b1b2.
On to `Oc1cc2c(cc1O)[C@H]1c3ccccc3CN[C@@H]1CC2` (racemic) [Dihydrexidine], for which the IC50 worked out at 113 µM.

In the case of `CC(C)C[C@H](NC(=O)[C@H](Cc1c[nH]c2ccccc12)NC(=O)[C@@H](NC(=O)[C@H](C)N)[C@@H](C)O)C(=O)N1CCC[C@H]1C(=O)N1CCC[C@H]1C(=O)N[C@@H](CCCNC(=N)N)C(=O)O` [ATWLPPR] (H-ATWLPPR-OH), the 50% inhibitory concentration (IC50) was 43 µM.

In the case of `COc1cc(C(=O)NS(=O)(=O)c2ccccc2C)ccc1Cc1cn(C)c2ccc(NC(=O)OC3CCCC3)cc12` [Zafirlukast], the IC50 was determined as 66 µM.

The term IC50 denotes the concentration that gives 50% inhibition.
